≈ marks a conversion by molar mass, not a printed value. Read-outs that look alike come from different tables or passages of the source.
What was measured:
[1] = test system: Enterococcus faecalis ATCC19433; assay: Antibacterial activity MIC; assay type: cell-based; details: ATCC19433, read-out: Antibacterial Activity MIC, Enterococcus faecalis
[2] = test system: Trichophyton mentagrophytes IFM40996; assay: Antifungal activity MIC; assay type: cell-based
[3] = test system: Candida albicans ATCC10231; assay: Antifungal activity MIC; assay type: cell-based
[4] = test system: Salmonella enterica ATCC14028; assay: Antibacterial activity MIC; assay type: cell-based; details: ATCC14028, read-out: Antibacterial Activity MIC, Salmonella enterica
[5] = test system: S. aureus strain Newman; assay: Antibacterial activity MIC; assay type: cell-based; details: Staphylococcus aureus, read-out: Antibacterial Activity MIC, S. aureus
[6] = test system: Trichophyton rubrum NBRC9185; assay: Antifungal activity MIC; assay type: cell-based
[7] = test system: Enterococcus faecium ATCC19434; assay: Antibacterial activity MIC; assay type: cell-based; details: ATCC19434, read-out: Antibacterial Activity MIC, Enterococcus faecium
[8] = test system: Escherichia coli ATCC25922; assay: Antibacterial activity MIC; assay type: cell-based; details: Gram-negative; for MIC: Escherichia coli, read-out: Antibacterial Activity MIC, E. coli
[9] = test system: Klebsiella pneumoniae ATCC10031; assay: Antibacterial activity MIC; assay type: cell-based; details: ATCC10031, read-out: Antibacterial Activity MIC, Klebsiella pneumonia
[10] = biological target: T1, recombinant SrtA from S. aureus ATCC6538p (Staphylococcus aureus, UniProt Q2FV99); assay: SrtA inhibition assay (fluorescence, dabcyl-LPETG-edans cleavage); assay type: biochemical
T1 construct: made in house; host or cells: Escherichia coli
Description: The same bioassays were pursued with the new compounds and the known congeners, with a particular emphasis on SrtA inhibition. The rationale of SrtA inhibition is that this transpeptidase decorates the surfaces of Gram-positive bacteria with a diverse array of proteins that enable microbes to effectively interact with their environment, and it is not required for bacterial growth or viability. It is thus considered a promising target for the development of anti-virulence drugs aimed at interfering with important virulence mechanisms such as adhesion to host tissues. To assess the SrtA inhibitory activity of compounds 1–14, recombinant SrtA derived from S. aureus ATCC6538p was purified from Escherichia coli extracts using metal chelate-affinity chromatography. The enzyme activity was determined from the fluorescence intensity upon cleavage of a peptide substrate containing the LPETG motif.
Before evaluating the SrtA inhibitory activity of the test compounds, recombinant SrtA from S. aureus ATCC6538p was prepared according to methods described in a previous paper. The SrtA inhibitory activity of the test compounds was determined according to previously described methods with minor modifications. The reaction was carried out with 100 μL buffer (50 mM Tris-HCl, 5 mM CaCl2, and 150 mM NaCl, pH 7.5), 7.5 µM synthetic peptide dabcyl-LPETG-edans (AnaSpec, Inc., Fremont, CA, USA), 7.5 µM purified SrtA, and test samples at various concentrations. […] The SrtA inhibition assay was conducted at 37 °C for 1 h, and inhibition was quantified fluorometrically using a microplate reader (FLx800, BioTek Instruments, Winooski, VT, USA) at excitation and emission wavelengths of 350 and 495 nm, respectively. Berberine chloride and triphasiol were used as reference inhibitors of SrtA.

[11] = test system: Aspergillus fumigatus HIC6094; assay: Antifungal activity MIC; assay type: cell-based
[12] = test system: A549 cell line; assay: MTT cytotoxicity assay; assay type: cell-based; details: Homo sapiens
Procedure: (§1) An MTT assay was performed as previously described to determine the cytotoxicity against A549 and K562 cell lines. These cancer cell lines were purchased from the Korean Cell Line Bank (KCLB), Seoul, Republic of Korea.

[13] = test system: K562 cell line; assay: MTT cytotoxicity assay; assay type: cell-based; details: Homo sapiens
Procedure: as §1

[14] = MTT assay, A549, read-out: IC50 A549
[15] = MTT assay, K562, read-out: IC50 K562

T1 sequence (Q2FV99 whole entry): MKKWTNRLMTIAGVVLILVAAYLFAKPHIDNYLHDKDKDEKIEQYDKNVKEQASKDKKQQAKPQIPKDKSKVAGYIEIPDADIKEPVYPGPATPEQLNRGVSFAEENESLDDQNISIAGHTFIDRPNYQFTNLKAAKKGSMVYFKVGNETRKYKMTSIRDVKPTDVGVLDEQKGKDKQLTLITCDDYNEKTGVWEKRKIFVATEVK

Structure (SMILES)	MIC ([1]; Gram-positive)	MIC [2]	MIC [3]	MIC ([4]; Gram-negative)	MIC ([5]; Gram-positive, strain Newman)	MIC [6]	MIC ([7]; Gram-positive)	MIC [8]	MIC ([9]; Gram-negative)	IC50 [10]	MIC [11]	IC50 [12, 14]	IC50 [13, 15]	also measured
O=C1NC(c2c[nH]c3cc(Br)ccc23)CN=C1c1c[nH]c2ccccc12 (stereo in doubt) [Compound 11, (R)-6′′-debromohamacanthin A]	32 µg/mL (≈ 78.6 µM)	> 128 µg/mL	> 128 µg/mL	16 µg/mL (≈ 39.3 µM)	8 µg/mL (≈ 19.6 µM)	> 128 µg/mL	32 µg/mL (≈ 78.6 µM)	> 128 µg/mL	8 µg/mL (≈ 19.6 µM)	47.5 µM	> 128 µg/mL	39.6 µM	> 100 µM	Antibacterial Activity MIC, E. coli [8]: >128 µg/mL
CO[C@@]1(C(=O)c2c[nH]c3cc(O)ccc23)N=C(c2c[nH]c3ccccc23)C(=O)N1 [Compound 1, spongosoritin A]	> 128 µg/mL	> 128 µg/mL	> 128 µg/mL	> 128 µg/mL	> 128 µg/mL	> 128 µg/mL	> 128 µg/mL	> 128 µg/mL	> 128 µg/mL	> 330 µM	> 128 µg/mL	77.3 µM	24.2 µM	
CO[C@@]1(C(=O)c2c[nH]c3ccccc23)N=C(c2c[nH]c3ccccc23)C(=O)N1 [Compound 2, spongosoritin B]	> 128 µg/mL	> 128 µg/mL	> 128 µg/mL	128 µg/mL (≈ 344 µM)	64 µg/mL (≈ 172 µM)	> 128 µg/mL	> 128 µg/mL	> 128 µg/mL	128 µg/mL (≈ 344 µM)	62.7 µM	> 128 µg/mL	55.7 µM	28.5 µM	
CO[C@@]1(C(=O)c2c[nH]c3ccccc23)N=C(c2c[nH]c3cc(Br)ccc23)C(=O)N1 [Compound 3, spongosoritin C]	128 µg/mL (≈ 284 µM)	> 128 µg/mL	> 128 µg/mL	64 µg/mL (≈ 142 µM)	32 µg/mL (≈ 70.9 µM)	> 128 µg/mL	> 128 µg/mL	> 128 µg/mL	> 128 µg/mL	43.9 µM	> 128 µg/mL	61.2 µM	37.7 µM	
CO[C@@]1(C(=O)c2c[nH]c3cc(O)ccc23)N=C(c2c[nH]c3cc(Br)ccc23)C(=O)N1 [Compound 4, spongosoritin D]	128 µg/mL (≈ 274 µM)	> 128 µg/mL	> 128 µg/mL	64 µg/mL (≈ 137 µM)	16 µg/mL (≈ 34.2 µM)	> 128 µg/mL	128 µg/mL (≈ 274 µM)	> 128 µg/mL	> 128 µg/mL	> 275 µM	> 128 µg/mL	70.9 µM	54.2 µM	
O=C(NCC(=O)c1c[nH]c2ccccc12)NC(=O)c1c[nH]c2cc(O)ccc12 [Compound 5, spongocarbamide A]	> 128 µg/mL	> 128 µg/mL	> 128 µg/mL	> 128 µg/mL	> 128 µg/mL	> 128 µg/mL	> 128 µg/mL	> 128 µg/mL	> 128 µg/mL	79.4 µM	> 128 µg/mL	> 100 µM	92.8 µM	
O=C(NCC(=O)c1c[nH]c2cc(Br)ccc12)NC(=O)c1c[nH]c2cc(O)ccc12 [Compound 6, spongocarbamide B]	> 128 µg/mL	> 128 µg/mL	> 128 µg/mL	128 µg/mL (≈ 281 µM)	64 µg/mL (≈ 141 µM)	> 128 µg/mL	> 128 µg/mL	> 128 µg/mL	> 128 µg/mL	52.4 µM	> 128 µg/mL	> 100 µM	> 100 µM	
O=C(c1nc(-c2c[nH]c3ccccc23)c[nH]1)c1c[nH]c2cc(O)ccc12 [Compound 7, topsentin]	64 µg/mL (≈ 187 µM)	> 128 µg/mL	> 128 µg/mL	64 µg/mL (≈ 187 µM)	32 µg/mL (≈ 93.5 µM)	> 128 µg/mL	64 µg/mL (≈ 187 µM)	> 128 µg/mL	64 µg/mL (≈ 187 µM)	> 374 µM	> 128 µg/mL	25.3 µM	15.3 µM	Antibacterial Activity MIC, E. coli [8]: >128 µg/mL
O=C(c1ncc(-c2c[nH]c3ccccc23)[nH]1)c1c[nH]c2cc(Br)ccc12 [Compound 8, isobromodeoxytopsentin]										41.3 µM				
O=C(c1ncc(-c2c[nH]c3cc(Br)ccc23)[nH]1)c1c[nH]c2ccccc12 [Compound 9, bromodeoxytopsentin]										34 µM				
O=C(c1nc(-c2c[nH]c3cc(Br)ccc23)c[nH]1)c1c[nH]c2cc(O)ccc12 [Compound 10, bromotopsentin]	32 µg/mL (≈ 76 µM)	> 128 µg/mL	> 128 µg/mL	16 µg/mL (≈ 38 µM)	8 µg/mL (≈ 19 µM)	> 128 µg/mL	16 µg/mL (≈ 38 µM)	> 128 µg/mL	64 µg/mL (≈ 152 µM)	53.2 µM	> 128 µg/mL	38.9 µM	43.2 µM	Antibacterial Activity MIC, E. coli [8]: >128 µg/mL
O=C1NC[C@H](c2c[nH]c3cc(Br)ccc23)N[C@H]1c1c[nH]c2cc(Br)ccc12 [Compound 12, (3S, 5R)-6-dibromo-trans-3,4-dihydrohamacanthin B]		> 128 µg/mL	> 128 µg/mL			> 128 µg/mL		> 128 µg/mL		> 263 µM	> 128 µg/mL			MIC [1]: 16 µg/mL (≈ 32.8 µM); MIC [4]: 8 µg/mL (≈ 16.4 µM); MIC ([5]; NEWMAN): 8 µg/mL (≈ 16.4 µM); MIC [7]: > 128 µg/mL; Antibacterial Activity MIC, E. coli [8]: >128 µg/mL; MIC [9]: 8 µg/mL (≈ 16.4 µM); IC50 ([12]; A549, read-out: IC50 A549): 34.3 µM; IC50 ([13]; K562, read-out: IC50 K562): 9.7 µM
COC(=O)c1c[nH]c2ccccc12 [Compound 13, 3-carbomethoxyindole]	> 128 µg/mL	> 128 µg/mL	> 128 µg/mL	> 128 µg/mL	128 µg/mL (≈ 731 µM)	> 128 µg/mL	> 128 µg/mL	> 128 µg/mL	> 128 µg/mL	164 µM	> 128 µg/mL	59.2 µM	> 100 µM	
COC(=O)c1c[nH]c2cc(O)ccc12 [Compound 14, 6-hydroxy-3-carbomethoxyindole]	> 128 µg/mL	> 128 µg/mL	> 128 µg/mL	> 128 µg/mL	128 µg/mL (≈ 670 µM)	> 128 µg/mL	> 128 µg/mL	> 128 µg/mL	> 128 µg/mL	191 µM	> 128 µg/mL	66.8 µM	> 100 µM	
CC1(C)S[C@@H]2[C@H](NC(=O)[C@H](N)c3ccccc3)C(=O)N2[C@H]1C(=O)O [ampicillin, reference compound]	0.5 µg/mL (≈ 1.43 µM)			0.25 µg/mL (≈ 0.715 µM)	0.13 µg/mL (≈ 0.372 µM)		1 µg/mL (≈ 2.86 µM)	8 µg/mL (≈ 22.9 µM)						
COc1ccc2cc3[n+](cc2c1OC)CCc1cc2c(cc1-3)OCO2 [berberine chloride, reference compound]										87.4 µM				
COc1cccc2c1C(=O)c1c(O)c3c(c(O)c1C2=O)C[C@@](O)(C(=O)CO)C[C@@H]3O[C@H]1C[C@H](N)[C@H](O)[C@H](C)O1 [doxorubicin, reference compound]												0.64 µM	0.92 µM	
CN(C)[C@@H]1C(O)=C(C(N)=O)C(=O)[C@@]2(O)C(O)=C3C(=O)c4c(O)cccc4[C@@](C)(O)[C@H]3C[C@@H]12 [tetracycline, reference compound]									0.25 µg/mL (≈ 0.563 µM)					
CC(C)C(=O)Cc1c(OCC(O)C(C)(C)O)ccc2ccc(=O)oc12 (stereo not shown) [triphasiol, reference compound]														IC50 ([10]; 7.5 µM SrtA, 7.5 µM dabcyl-LPETG-edans, 37 °C, 1 h, pH 7.5, read-out: IC50 Srt A): 37.9 µM
